Active and inactive are the calls of the source.
How the values were obtained:
cells [1] = type: functional, cell-based
Streptokinase A = molecular target: T1, Streptokinase A (Streptococcus pyogenes serotype M1, UniProt P10520); assay: S. pyogenes streptokinase expression inhibitors, potency, dose response, plasminogen activation absorbance, OD405 (AID 1914); type: functional, Streptococcus pyogenes M1 GAS;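 also: secreted streptokinase activity via plasminogen activation per viability signal from cell pellet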
T1 sequence (P10520 whole entry): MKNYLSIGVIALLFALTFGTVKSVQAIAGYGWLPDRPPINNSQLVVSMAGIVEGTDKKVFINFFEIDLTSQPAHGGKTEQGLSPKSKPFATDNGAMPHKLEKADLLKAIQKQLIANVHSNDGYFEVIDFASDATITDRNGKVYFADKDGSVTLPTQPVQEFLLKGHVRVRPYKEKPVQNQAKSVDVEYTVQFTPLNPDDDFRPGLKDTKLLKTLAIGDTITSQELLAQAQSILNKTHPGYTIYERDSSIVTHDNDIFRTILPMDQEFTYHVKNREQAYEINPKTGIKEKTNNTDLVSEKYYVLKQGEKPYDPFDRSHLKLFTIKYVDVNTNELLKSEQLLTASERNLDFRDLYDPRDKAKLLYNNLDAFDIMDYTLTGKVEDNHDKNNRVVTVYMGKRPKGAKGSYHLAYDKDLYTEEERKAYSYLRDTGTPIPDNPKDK

cells [2] = type: functional, cell-based; remark: listed apart in the source
Streptococcus = assay: Group A Streptococcus viability loss, dose response, counter-screen for streptokinase expression inhibitor project, luminescence, BacTiterGlo (AID 1915); type: functional, organism-based;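 also: potency for reduction of bacterial viability or growth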
[3] = molecular target: T2, Small ubiquitin-related modifier 1 (Homo sapiens, UniProt P63165); assay: inhibitors of SUMO1 peptide binding, dose response, biochemical, fluorescence polarization, uHTS hits (AID 624382); type: functional; details: read-out: IC50_Mean
T2 sequence (P63165 whole entry): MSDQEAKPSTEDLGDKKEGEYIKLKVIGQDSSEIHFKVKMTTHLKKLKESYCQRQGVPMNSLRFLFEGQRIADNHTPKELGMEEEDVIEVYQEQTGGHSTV

[4] = molecular target: T2, Small ubiquitin-related modifier 1; assay: inhibitors of SUMO1 partner interactions, dose response, biochemical, FRET (AID 624383); type: functional; details: read-out: IC50_Mean
[5] = molecular target: Induced myeloid leukemia cell differentiation protein Mcl-1 (Homo sapiens, UniProt Q07820); type: functional
Sequence of Induced myeloid leukemia cell differentiation protein Mcl-1 (Q07820 whole entry): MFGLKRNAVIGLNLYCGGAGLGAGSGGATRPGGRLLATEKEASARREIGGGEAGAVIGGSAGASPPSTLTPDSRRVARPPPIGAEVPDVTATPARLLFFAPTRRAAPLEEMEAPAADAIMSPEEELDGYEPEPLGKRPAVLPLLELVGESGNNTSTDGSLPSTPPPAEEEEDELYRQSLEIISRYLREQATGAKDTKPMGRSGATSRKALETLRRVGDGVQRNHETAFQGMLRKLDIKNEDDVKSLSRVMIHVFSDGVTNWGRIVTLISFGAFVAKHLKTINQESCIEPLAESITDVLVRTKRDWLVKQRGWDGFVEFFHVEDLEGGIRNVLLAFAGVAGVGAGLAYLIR

[6] = molecular target: Glucose-6-phosphate 1-dehydrogenase (Homo sapiens, UniProt P11413); assay: human G6PD enzyme inhibitors, dose response, selectivity assay for P. falciparum G6PD inhibitor project, biochemical, fluorescence (AID 504792); type: functional
Sequence of Glucose-6-phosphate 1-dehydrogenase (P11413 whole entry): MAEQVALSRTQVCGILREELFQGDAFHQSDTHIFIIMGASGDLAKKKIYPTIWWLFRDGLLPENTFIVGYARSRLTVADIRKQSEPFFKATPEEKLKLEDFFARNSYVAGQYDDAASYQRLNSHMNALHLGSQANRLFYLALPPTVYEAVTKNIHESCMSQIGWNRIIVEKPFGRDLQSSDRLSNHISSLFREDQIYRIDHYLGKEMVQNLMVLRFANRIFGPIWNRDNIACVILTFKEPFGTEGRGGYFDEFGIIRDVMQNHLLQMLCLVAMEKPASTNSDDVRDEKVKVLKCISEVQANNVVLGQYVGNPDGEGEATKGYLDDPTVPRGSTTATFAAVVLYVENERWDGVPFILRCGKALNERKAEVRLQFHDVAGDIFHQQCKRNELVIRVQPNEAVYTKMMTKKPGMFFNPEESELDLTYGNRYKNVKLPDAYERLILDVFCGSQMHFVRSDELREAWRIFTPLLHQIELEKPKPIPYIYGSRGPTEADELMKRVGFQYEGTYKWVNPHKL

[7] = molecular target: T3, Replicative DNA helicase DnaB (Mycobacterium tuberculosis, UniProt P9WMR3); assay: DnaB intein splicing inhibitors, dose response, biochemical, cell-free fluorescence (AID 449749); type: functional
T3 sequence (P9WMR3 whole entry): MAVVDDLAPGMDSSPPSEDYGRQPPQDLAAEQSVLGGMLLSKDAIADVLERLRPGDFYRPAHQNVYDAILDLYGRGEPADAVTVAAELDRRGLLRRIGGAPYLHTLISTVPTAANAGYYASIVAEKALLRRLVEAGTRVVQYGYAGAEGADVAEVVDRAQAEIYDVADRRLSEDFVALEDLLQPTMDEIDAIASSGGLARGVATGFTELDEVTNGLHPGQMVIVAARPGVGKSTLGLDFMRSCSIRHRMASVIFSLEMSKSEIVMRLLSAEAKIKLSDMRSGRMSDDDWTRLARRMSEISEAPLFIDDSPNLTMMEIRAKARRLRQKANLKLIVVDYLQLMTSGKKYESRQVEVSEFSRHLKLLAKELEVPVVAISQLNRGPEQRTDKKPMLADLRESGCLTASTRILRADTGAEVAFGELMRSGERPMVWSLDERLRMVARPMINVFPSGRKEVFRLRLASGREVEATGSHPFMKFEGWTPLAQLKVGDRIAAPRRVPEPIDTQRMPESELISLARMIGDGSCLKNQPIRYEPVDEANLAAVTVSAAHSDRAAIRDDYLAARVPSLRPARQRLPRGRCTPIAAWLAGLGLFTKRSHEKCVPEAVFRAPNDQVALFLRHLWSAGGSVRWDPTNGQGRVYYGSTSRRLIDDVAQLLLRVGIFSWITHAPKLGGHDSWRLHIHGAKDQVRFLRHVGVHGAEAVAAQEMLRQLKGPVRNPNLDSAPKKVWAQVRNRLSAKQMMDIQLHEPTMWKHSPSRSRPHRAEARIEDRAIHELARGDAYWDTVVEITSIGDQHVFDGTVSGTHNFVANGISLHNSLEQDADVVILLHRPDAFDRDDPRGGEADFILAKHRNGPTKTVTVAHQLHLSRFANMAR

Protein RecA = molecular target: T4, Protein RecA (Mycobacterium tuberculosis, UniProt P9WHJ3); assay: Fluorescence Cell-Free Homogeneous Dose Retest to Identify Inhibitors of RecA-Intein Splicing Activity. [Related pubchem assays (depositor defined):AID2097, AID2223, AID489010, AID492950]; type: functional
T4 sequence (P9WHJ3 whole entry): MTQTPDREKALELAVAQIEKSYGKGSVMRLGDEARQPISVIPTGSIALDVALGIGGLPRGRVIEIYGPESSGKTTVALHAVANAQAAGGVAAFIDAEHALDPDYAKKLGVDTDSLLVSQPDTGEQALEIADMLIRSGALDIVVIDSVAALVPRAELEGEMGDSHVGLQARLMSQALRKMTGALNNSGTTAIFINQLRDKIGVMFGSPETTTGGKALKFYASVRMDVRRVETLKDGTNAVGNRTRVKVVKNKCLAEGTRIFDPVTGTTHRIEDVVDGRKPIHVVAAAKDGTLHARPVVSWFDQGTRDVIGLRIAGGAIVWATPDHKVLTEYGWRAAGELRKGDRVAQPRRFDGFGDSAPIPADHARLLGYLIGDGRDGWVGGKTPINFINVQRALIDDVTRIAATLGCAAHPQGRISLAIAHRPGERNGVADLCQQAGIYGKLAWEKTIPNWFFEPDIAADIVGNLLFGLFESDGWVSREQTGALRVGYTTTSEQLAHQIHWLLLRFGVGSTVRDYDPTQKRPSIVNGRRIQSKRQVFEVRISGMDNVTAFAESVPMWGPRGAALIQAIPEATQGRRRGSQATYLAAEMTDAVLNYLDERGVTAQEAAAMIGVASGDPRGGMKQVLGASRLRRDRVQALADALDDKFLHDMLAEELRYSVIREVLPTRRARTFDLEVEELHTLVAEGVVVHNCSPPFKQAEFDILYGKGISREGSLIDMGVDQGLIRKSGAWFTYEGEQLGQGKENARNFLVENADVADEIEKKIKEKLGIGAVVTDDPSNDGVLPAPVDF

[8] = molecular target: T5, Rac GTPase-activating protein 1 (Homo sapiens, UniProt Q9H0H5); assay: MgcRacGAP GTPase-activating activity inhibitors, confirmation, biochemical, ADP Hunter fluorescence, primary and confirmatory (AID 624330); type: functional
T5 sequence (Q9H0H5 whole entry): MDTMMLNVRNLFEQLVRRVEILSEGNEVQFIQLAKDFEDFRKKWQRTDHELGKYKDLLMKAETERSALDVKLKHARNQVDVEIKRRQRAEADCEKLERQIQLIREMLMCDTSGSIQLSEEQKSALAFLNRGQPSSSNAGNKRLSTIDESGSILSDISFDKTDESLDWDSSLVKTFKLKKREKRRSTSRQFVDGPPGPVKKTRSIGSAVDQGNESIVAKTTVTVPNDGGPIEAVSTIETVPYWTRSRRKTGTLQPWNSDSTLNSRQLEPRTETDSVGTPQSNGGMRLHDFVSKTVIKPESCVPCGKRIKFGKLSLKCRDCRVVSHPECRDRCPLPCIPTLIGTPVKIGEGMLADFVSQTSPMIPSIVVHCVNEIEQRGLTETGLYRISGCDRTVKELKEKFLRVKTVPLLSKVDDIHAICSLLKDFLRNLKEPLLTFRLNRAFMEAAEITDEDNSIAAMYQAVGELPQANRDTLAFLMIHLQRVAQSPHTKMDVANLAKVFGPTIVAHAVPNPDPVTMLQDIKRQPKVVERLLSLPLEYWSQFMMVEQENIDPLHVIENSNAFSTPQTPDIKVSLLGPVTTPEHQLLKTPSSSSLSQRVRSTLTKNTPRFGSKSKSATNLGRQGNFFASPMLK

[9] = AlphaScreen signal interference compounds, dose response, artefact control for ARNT-TACC3 interaction inhibitor project, biochemical, luminescence, cherry-pick (AID 651705); type: functional;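 also: AlphaScreen bead proximity signal that flags compounds interfering with the detection technology; potency reflects signal decrease which marks the compound as an assay artifact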
[10] = molecular target: T6, Sentrin-specific protease 8 (Homo sapiens, UniProt Q96LD8); type: functional
T6 sequence (Q96LD8 whole entry): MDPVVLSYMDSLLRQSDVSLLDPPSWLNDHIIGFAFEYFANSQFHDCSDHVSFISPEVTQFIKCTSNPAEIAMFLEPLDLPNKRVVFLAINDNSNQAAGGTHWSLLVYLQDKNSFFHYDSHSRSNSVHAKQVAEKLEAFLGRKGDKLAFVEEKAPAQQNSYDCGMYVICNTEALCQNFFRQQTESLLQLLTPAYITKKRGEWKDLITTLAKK

[11] = molecular target: T6, Sentrin-specific protease 8; type: functional; remark: listed apart in the source
SUMO-activating enzyme = SUMO-activating enzyme (Homo sapiens, UniProt Q9UBT2); assay: SUMOylation inhibitor hit validation, confirmation, SUMOylation inhibitor project, biochemical, AlphaScreen (AID 2018); type: functional
Sequence of SUMO-activating enzyme (Q9UBE0 whole entry): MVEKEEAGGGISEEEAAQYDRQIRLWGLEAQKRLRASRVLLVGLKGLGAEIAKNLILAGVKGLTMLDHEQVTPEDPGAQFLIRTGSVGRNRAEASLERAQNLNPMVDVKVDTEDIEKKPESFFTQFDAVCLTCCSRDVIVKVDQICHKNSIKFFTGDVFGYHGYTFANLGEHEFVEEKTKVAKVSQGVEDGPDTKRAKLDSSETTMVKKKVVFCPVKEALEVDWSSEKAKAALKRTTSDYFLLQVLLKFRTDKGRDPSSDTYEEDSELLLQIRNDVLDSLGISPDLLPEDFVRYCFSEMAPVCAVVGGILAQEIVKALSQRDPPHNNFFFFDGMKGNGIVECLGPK
Sequence of SUMO-activating enzyme (Q9UBT2 whole entry): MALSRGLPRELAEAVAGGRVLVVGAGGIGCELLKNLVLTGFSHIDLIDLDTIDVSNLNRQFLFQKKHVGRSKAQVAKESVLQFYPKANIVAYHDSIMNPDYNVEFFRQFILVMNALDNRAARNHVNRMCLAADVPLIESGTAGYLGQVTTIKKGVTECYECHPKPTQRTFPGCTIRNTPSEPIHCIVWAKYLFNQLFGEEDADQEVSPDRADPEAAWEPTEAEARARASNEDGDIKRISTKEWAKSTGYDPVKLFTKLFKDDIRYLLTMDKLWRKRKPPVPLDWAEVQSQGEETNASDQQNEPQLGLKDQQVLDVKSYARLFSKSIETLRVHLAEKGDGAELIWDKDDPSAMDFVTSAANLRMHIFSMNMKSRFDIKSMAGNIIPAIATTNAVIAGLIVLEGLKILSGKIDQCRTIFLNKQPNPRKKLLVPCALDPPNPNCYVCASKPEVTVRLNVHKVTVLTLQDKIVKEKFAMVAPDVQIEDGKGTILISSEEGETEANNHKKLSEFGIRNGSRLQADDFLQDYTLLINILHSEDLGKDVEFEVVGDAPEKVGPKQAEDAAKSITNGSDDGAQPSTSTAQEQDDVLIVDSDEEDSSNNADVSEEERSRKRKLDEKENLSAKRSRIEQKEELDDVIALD

[12] = molecular target: T7, Corticotropin-releasing factor receptor 2/Corticotropin-releasing factor-binding protein (Homo sapiens, UniProt P24387+Q13324); assay: Dose Response confirmation of uHTS hits for small molecule antagonists of the CRF-binding protein and CRF-R2 receptor complex.; type: functional; details: read-out: IC50_Mean
T7 sequence (Q13324 whole entry): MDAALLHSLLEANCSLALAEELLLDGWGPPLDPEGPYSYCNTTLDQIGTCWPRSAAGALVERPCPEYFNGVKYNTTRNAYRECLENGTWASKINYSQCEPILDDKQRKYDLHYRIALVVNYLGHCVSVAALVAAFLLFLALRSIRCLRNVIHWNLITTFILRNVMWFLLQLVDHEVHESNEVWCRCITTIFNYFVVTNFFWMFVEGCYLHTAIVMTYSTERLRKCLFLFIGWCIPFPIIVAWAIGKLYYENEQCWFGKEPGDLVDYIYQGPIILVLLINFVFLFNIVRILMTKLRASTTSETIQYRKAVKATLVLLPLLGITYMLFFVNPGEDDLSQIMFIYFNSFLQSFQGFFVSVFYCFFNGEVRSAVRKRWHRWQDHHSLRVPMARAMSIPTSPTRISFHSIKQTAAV
T7 sequence (P24387 whole entry): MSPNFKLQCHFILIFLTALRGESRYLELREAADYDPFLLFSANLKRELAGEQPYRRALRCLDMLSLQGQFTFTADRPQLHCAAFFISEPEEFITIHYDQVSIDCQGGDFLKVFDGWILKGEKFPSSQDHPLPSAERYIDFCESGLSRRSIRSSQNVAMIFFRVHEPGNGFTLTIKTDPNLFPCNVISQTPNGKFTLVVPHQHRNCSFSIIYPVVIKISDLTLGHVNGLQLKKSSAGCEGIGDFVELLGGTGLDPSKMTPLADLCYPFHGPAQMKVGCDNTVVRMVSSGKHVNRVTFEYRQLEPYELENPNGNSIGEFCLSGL

[13] = molecular target: T7, Corticotropin-releasing factor receptor 2/Corticotropin-releasing factor-binding protein; assay: activators of CRF receptor 2 with binding protein – uHTS hits, confirmation (AID 602473); type: functional; details: read-out: EC50_Mean
[14] = CRF-BP/CRF-R2 complex antagonists, dose response, cell-based, uHTS hits, 384-well (AID 651639); type: functional, Homo sapiens; details: read-out: IC50_Mean
[15] = molecular target: SWI/SNF-related matrix-associated actin-dependent regulator of chromatin subfamily A member 2 (Homo sapiens, UniProt P51531); assay: Luminescence-based cell-based high throughput dose response assay to identify activators of the function of SWI/SNF related, matrix associated, actin dependent regulator of chromatin, subfamily a, member 2 (SMARCA2, BRM).; type: functional
Sequence of SWI/SNF-related matrix-associated actin-dependent regulator of chromatin subfamily A member 2 (P51531 whole entry): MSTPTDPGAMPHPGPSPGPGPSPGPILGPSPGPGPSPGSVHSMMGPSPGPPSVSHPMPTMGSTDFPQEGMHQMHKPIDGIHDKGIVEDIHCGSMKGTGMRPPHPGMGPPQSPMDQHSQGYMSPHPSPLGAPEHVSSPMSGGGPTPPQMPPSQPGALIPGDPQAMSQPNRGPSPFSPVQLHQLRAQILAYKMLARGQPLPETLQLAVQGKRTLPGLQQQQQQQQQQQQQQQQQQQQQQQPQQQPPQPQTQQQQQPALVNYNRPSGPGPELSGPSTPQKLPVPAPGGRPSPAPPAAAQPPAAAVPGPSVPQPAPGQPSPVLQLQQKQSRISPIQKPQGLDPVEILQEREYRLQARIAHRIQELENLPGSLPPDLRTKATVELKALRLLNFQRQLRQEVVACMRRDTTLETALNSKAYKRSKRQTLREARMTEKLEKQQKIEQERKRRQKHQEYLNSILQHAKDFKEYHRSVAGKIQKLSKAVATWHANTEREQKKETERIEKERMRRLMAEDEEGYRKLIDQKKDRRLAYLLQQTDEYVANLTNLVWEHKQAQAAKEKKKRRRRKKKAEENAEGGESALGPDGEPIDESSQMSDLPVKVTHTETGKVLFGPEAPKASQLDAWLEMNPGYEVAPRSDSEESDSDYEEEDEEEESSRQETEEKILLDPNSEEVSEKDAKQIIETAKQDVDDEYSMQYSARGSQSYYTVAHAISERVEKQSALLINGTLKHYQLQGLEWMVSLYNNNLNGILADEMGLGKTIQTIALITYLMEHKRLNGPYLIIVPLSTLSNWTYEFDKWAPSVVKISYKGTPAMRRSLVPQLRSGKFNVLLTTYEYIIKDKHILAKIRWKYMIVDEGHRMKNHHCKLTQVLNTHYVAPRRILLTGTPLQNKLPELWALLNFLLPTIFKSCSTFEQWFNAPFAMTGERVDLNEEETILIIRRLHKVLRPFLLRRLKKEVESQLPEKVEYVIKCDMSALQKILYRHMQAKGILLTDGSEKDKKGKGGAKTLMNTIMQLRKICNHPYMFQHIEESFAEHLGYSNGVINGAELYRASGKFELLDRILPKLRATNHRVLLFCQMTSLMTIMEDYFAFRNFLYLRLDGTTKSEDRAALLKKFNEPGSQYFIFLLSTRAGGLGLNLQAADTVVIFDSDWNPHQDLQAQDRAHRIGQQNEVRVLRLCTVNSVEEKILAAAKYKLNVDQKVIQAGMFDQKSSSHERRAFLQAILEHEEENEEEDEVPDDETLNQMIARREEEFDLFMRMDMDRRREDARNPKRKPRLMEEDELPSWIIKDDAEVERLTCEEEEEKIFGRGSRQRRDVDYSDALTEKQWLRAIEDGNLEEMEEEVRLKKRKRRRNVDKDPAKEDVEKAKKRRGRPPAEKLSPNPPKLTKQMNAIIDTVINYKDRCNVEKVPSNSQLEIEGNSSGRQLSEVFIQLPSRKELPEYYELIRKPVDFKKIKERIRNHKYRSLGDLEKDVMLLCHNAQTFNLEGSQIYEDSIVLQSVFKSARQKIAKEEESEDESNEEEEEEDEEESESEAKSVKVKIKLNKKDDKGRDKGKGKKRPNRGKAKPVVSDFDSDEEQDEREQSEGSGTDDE

[16] = Counterscreen for activators of the function of SWI/SNF related, matrix associated, actin dependent regulator of chromatin, subfamily a, member 2 (SMARCA2, BRM): Luminescence-based cell-based high throughput dose response assay to identify non-selective compounds using the VP16 reporter assay.; type: functional
Cytochrome P450 2C9 = Cytochrome P450 2C9 (Homo sapiens, UniProt P11712)
Sequence of Cytochrome P450 2C9 (P11712 whole entry): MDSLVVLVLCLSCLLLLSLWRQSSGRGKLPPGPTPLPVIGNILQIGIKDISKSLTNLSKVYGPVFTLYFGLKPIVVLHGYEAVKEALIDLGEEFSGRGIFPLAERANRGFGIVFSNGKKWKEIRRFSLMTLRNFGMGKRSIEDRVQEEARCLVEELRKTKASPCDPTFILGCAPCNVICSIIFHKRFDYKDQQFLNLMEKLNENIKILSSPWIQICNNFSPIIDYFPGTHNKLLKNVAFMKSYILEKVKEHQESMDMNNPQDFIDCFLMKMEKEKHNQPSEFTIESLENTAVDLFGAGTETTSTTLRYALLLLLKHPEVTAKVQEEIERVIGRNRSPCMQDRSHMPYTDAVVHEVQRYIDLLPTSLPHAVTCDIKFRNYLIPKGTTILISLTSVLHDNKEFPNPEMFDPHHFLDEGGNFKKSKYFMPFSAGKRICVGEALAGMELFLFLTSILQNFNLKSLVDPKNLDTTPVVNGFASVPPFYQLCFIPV

N#C/C(=C\c1ccc(/C=C(/C#N)c2nn(CCO)c(N)c2C#N)cc1)c1nn(CCO)c(N)c1C#N
EC50 (cells [1]): > 350 µM (not active)
EC50 (Streptokinase A): > 150 µM (not active)
EC50 (cells [2]): > 350 µM (not active)
EC50 (Streptococcus): > 150 µM (not active)
IC50 [3]: > 66.6 µM (inactive)
IC50 [4]: 2.85 µM (active)

CCOC(=O)c1c(OCC)[nH]c2c1cc(O)c1ccccc12
IC50 [5]: 935 nM (active)
IC50 [6]: > 80 µM (inactive)
AC50 [7]: > 380 µM (inconclusive)
EC50 (Protein RecA): 2.64 µM (active)
IC50 [8]: 63.5 µM (active)
AC50 [9]: 93 µM (active)

COc1ccc(CCNC(=O)c2cc3c(=O)n4cccc(C)c4nc3s2)cc1OC
IC50 [3]: > 66.6 µM (inactive)
IC50 [4]: 100 µM (inactive)

COc1cc(C(c2c(C)[nH][nH]c2=O)c2c(C)[nH][nH]c2=O)ccc1OS(=O)(=O)c1ccc(C)cc1
AC50 [7]: 0.484 µM (active)
EC50 (Protein RecA): 0.195 µM (active)
IC50 [10]: 20.4 µM (active)
IC50 [11]: 35.4 µM (active)

COC(=O)c1nc2n(n1)C(c1ccc([N+](=O)[O-])cc1)C(C(=O)Nc1ccc(Cl)cc1)=C(C)N2 (stereo not drawn)
IC50 (SUMO-activating enzyme): 32.4 µM (active)
IC50 [12]: 17.8 µM (active)
EC50 [13]: > 53 µM (inactive)
IC50 [14]: > 20 µM (inactive)

COc1ccc(C2Nc3ccccc3C(=O)N2c2ccc(C)cc2)cc1COc1ccccn1 (stereo not drawn)
EC50 [15]: > 91.1 µM (inactive)
EC50 [16]: > 91.1 µM (inactive)

O=C(Nc1c(-c2ccc(Cl)cc2)n[nH]c1O)c1ccc(Br)cc1
IC50 [10]: 34.1 µM (active)
IC50 [11]: 48 µM (active)

Cc1nc(-c2c(C(F)(F)F)noc2-c2ccc(O)cc2O)cs1
IC50 [12]: 22.7 µM (active)
EC50 [13]: > 53 µM (inactive)
IC50 [14]: > 20 µM (inactive)
AC50 (Cytochrome P450 2C9): 3.16 µM (inconclusive)

COc1ccc(NC(S)=NCc2cccnc2)cc1
EC50 (cells [1]): > 350 µM (not active)
EC50 (cells [2]): > 350 µM (not active)
IC50 [14]: 17.8 µM (active)

Reference: ChEMBL document CHEMBL1201862, “PubChem BioAssay data set” (2004)
